In PubChem BioAssay (NCI):
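96-well plates; 48 h exposure; 5 concentrations. Endpoints by linear interpolation between flanking doses. Not reached: highest tested concentration assigned. The concentration for 50% growth inhibition is given as GI50. TGI marks complete inhibition of growth.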

Tests used:
Assay in all cases: NCI tumour cell line growth inhibition, 48 h
786-0 renal = system: 786-0 renal
A498 renal = system: A498 renal
A549 NSCLC = system: A549 NSCLC
BT-549 breast = system: BT-549 breast
CAKI-1 renal = system: CAKI-1 renal
CCRF-CEM leukemia = system: CCRF-CEM leukemia
COLO 205 colon = system: COLO 205 colon
DU-145 prostate = system: DU-145 prostate
EKVX NSCLC = system: EKVX NSCLC
HCC-2998 colon = system: HCC-2998 colon
HCT-116 colon = system: HCT-116 colon
HCT-15 colon = system: HCT-15 colon
HL-60(TB) leukemia = system: HL-60(TB) leukemia
HOP-62 NSCLC = system: HOP-62 NSCLC
HS 578T breast = system: HS 578T breast
HT29 colon = system: HT29 colon
IGROV1 ovarian = system: IGROV1 ovarian
K-562 leukemia = system: K-562 leukemia
KM12 colon = system: KM12 colon
LOX IMVI melanoma = system: LOX IMVI melanoma
M14 melanoma = system: M14 melanoma
MALME-3M melanoma = system: MALME-3M melanoma
MCF7 breast = system: MCF7 breast
MDA-MB-231 breast = system: MDA-MB-231 breast
MDA-MB-435 = system: MDA-MB-435
MDA-MB-468 breast = system: MDA-MB-468 breast
MOLT-4 leukemia = system: MOLT-4 leukemia
NCI-H23 lung = system: NCI-H23 lung
NCI-H460 lung = system: NCI-H460 lung
NCI-H522 lung = system: NCI-H522 lung
OVCAR-3 ovarian = system: OVCAR-3 ovarian
OVCAR-4 ovarian = system: OVCAR-4 ovarian
OVCAR-5 ovarian = system: OVCAR-5 ovarian
OVCAR-8 ovarian = system: OVCAR-8 ovarian
PC-3 prostate = system: PC-3 prostate
RPMI-8226 leukemia = system: RPMI-8226 leukemia
RXF 393 renal = system: RXF 393 renal
SF-268 CNS = system: SF-268 CNS
SF-295 CNS = system: SF-295 CNS
SF-539 CNS = system: SF-539 CNS
SK-MEL-2 melanoma = system: SK-MEL-2 melanoma
SK-MEL-28 melanoma = system: SK-MEL-28 melanoma
SK-MEL-5 melanoma = system: SK-MEL-5 melanoma
SK-OV-3 ovarian = system: SK-OV-3 ovarian
SN12C renal = system: SN12C renal
SNB-19 CNS = system: SNB-19 CNS
SNB-75 CNS = system: SNB-75 CNS
SR leukemia = system: SR leukemia
SW-620 colon = system: SW-620 colon
T-47D breast = system: T-47D breast
TK-10 renal = system: TK-10 renal
U251 CNS = system: U251 CNS
UACC-257 melanoma = system: UACC-257 melanoma
UO-31 renal = system: UO-31 renal
ACHN renal = system: ACHN renal
HOP-92 NSCLC = system: HOP-92 NSCLC
NCI-H226 lung = system: NCI-H226 lung
NCI/ADR-RES ovarian = system: NCI/ADR-RES ovarian
UACC-62 melanoma = system: UACC-62 melanoma

## COC[C@@H](CC(C)C)N=C1N/C(=C\c2ccc3ncsc3c2)C(=O)N1C
786-0 renal
  GI50: 3.48 µM
  TGI: > 100 µM
A498 renal
  GI50: 1.2 µM
  TGI: 4.97 µM
A549 NSCLC
  GI50: 2.05 µM
  TGI: > 100 µM
BT-549 breast
  GI50: 2.01 µM
  TGI: 9.51 µM
CAKI-1 renal
  GI50: 1.73 µM
  TGI: > 100 µM
CCRF-CEM leukemia
  GI50: 2.55 µM
  TGI: 18.6 µM
COLO 205 colon
  GI50: 1.97 µM
  TGI: 7.26 µM
DU-145 prostate
  GI50: 3.22 µM
  TGI: > 100 µM
EKVX NSCLC
  GI50: 3.06 µM
  TGI: > 100 µM
HCC-2998 colon
  GI50: 2.67 µM
  TGI: 18.6 µM
HCT-116 colon
  GI50: 1.22 µM
  TGI: > 100 µM
HCT-15 colon
  GI50: 2.01 µM
  TGI: > 100 µM
HL-60(TB) leukemia
  GI50: 2.55 µM
  TGI: 8.29 µM
HOP-62 NSCLC
  GI50: 2.23 µM
  TGI: 8.86 µM
HS 578T breast
  GI50: 2.03 µM
  TGI: 9.14 µM
HT29 colon
  GI50: 3.27 µM
  TGI: 16.2 µM
IGROV1 ovarian
  GI50: 2.26 µM
  TGI: > 100 µM
K-562 leukemia
  GI50: 1.76 µM
  TGI: > 100 µM
KM12 colon
  GI50: 2.36 µM
  TGI: > 100 µM
LOX IMVI melanoma
  GI50: 2.34 µM
  TGI: > 100 µM
M14 melanoma
  GI50: 4.11 µM
  TGI: > 100 µM
MALME-3M melanoma
  GI50: 2.36 µM
  TGI: 8.53 µM
MCF7 breast
  GI50: 2.57 µM
  TGI: 22.2 µM
MDA-MB-231 breast
  GI50: 3.9 µM
  TGI: > 100 µM
MDA-MB-435
  GI50: 3.72 µM
  TGI: > 100 µM
MDA-MB-468 breast
  GI50: 0.999 µM
  TGI: 6.09 µM
MOLT-4 leukemia
  GI50: 2.8 µM
  TGI: > 100 µM
NCI-H23 lung
  GI50: 2.02 µM
  TGI: 14.2 µM
NCI-H460 lung
  GI50: 2.61 µM
  TGI: > 100 µM
NCI-H522 lung
  GI50: 1.34 µM
  TGI: 6.03 µM
OVCAR-3 ovarian
  GI50: 1.23 µM
  TGI: 5.31 µM
OVCAR-4 ovarian
  GI50: 4.29 µM
  TGI: > 100 µM
OVCAR-5 ovarian
  GI50: 4.15 µM
  TGI: > 100 µM
OVCAR-8 ovarian
  GI50: 2.65 µM
  TGI: > 100 µM
PC-3 prostate
  GI50: 4.24 µM
  TGI: > 100 µM
RPMI-8226 leukemia
  GI50: 2.7 µM
  TGI: 12.3 µM
RXF 393 renal
  GI50: 2.18 µM
  TGI: 6.85 µM
SF-268 CNS
  GI50: 2.85 µM
  TGI: > 100 µM
SF-295 CNS
  GI50: 3.25 µM
  TGI: > 100 µM
SF-539 CNS
  GI50: 0.958 µM
  TGI: 7.12 µM
SK-MEL-2 melanoma
  GI50: 1.53 µM
  TGI: 3.77 µM
SK-MEL-28 melanoma
  GI50: 2.93 µM
  TGI: 8.72 µM
SK-MEL-5 melanoma
  GI50: 1.77 µM
  TGI: 4.62 µM
SK-OV-3 ovarian
  GI50: 1.96 µM
  TGI: 9.82 µM
SN12C renal
  GI50: 3 µM
  TGI: > 100 µM
SNB-19 CNS
  GI50: 0.999 µM
  TGI: > 100 µM
SNB-75 CNS
  GI50: 0.0476 µM
  TGI: 4.84 µM
SR leukemia
  GI50: 2.17 µM
  TGI: 24.9 µM
SW-620 colon
  GI50: 1.54 µM
  TGI: > 100 µM
T-47D breast
  GI50: 2.01 µM
  TGI: > 100 µM
TK-10 renal
  GI50: 3.8 µM
  TGI: > 100 µM
U251 CNS
  GI50: 2.35 µM
  TGI: > 100 µM
UACC-257 melanoma
  GI50: 2.81 µM
  TGI: > 100 µM
UO-31 renal
  GI50: 1.87 µM
  TGI: 7.21 µM

## O/N=C(\CSc1nnc(-c2c[nH]c3ccccc23)n1-c1ccccc1)c1ccc(Br)cc1
786-0 renal
  GI50: 6.85 µM
  TGI: 27 µM
A498 renal
  GI50: 16.3 µM
  TGI: 51.7 µM
A549 NSCLC
  GI50: 2.49 µM
  TGI: 6.66 µM
ACHN renal
  GI50: 2.53 µM
  TGI: 7.05 µM
BT-549 breast
  GI50: 3.16 µM
  TGI: 7.25 µM
CAKI-1 renal
  GI50: 2.63 µM
  TGI: 8.1 µM
COLO 205 colon
  GI50: 3.8 µM
  TGI: 16.6 µM
EKVX NSCLC
  GI50: 2.6 µM
  TGI: 9.09 µM
HCC-2998 colon
  GI50: 3.36 µM
  TGI: 12.3 µM
HCT-116 colon
  GI50: 3.45 µM
  TGI: 17.4 µM
HCT-15 colon
  GI50: 2.11 µM
  TGI: 4.72 µM
HL-60(TB) leukemia
  GI50: 1.92 µM
  TGI: 4.55 µM
HOP-92 NSCLC
  GI50: 3.66 µM
  TGI: 24.1 µM
HS 578T breast
  GI50: 2.84 µM
  TGI: 11.9 µM
HT29 colon
  GI50: 2.23 µM
  TGI: 5.03 µM
IGROV1 ovarian
  GI50: 3.41 µM
  TGI: 11.7 µM
KM12 colon
  GI50: 4.15 µM
  TGI: 29.2 µM
LOX IMVI melanoma
  GI50: 1.71 µM
  TGI: 3.12 µM
M14 melanoma
  GI50: 3.4 µM
  TGI: 17.6 µM
MALME-3M melanoma
  GI50: 3.22 µM
  TGI: 14.3 µM
MCF7 breast
  GI50: 3.49 µM
  TGI: 15.3 µM
MDA-MB-231 breast
  GI50: 1.71 µM
  TGI: 3.26 µM
MDA-MB-435
  GI50: 2.01 µM
  TGI: 3.89 µM
MDA-MB-468 breast
  GI50: 1.72 µM
  TGI: 3.3 µM
MOLT-4 leukemia
  GI50: 2.09 µM
  TGI: 4.8 µM
NCI-H226 lung
  GI50: 3.33 µM
  TGI: 14.9 µM
NCI-H23 lung
  GI50: 4.31 µM
  TGI: 19.6 µM
NCI-H460 lung
  GI50: 3.53 µM
  TGI: 12.9 µM
NCI-H522 lung
  GI50: 2.52 µM
  TGI: 7.7 µM
NCI/ADR-RES ovarian
  GI50: 1.9 µM
  TGI: 3.91 µM
OVCAR-3 ovarian
  GI50: 4.98 µM
  TGI: 23.8 µM
OVCAR-5 ovarian
  GI50: 2.18 µM
  TGI: 5.21 µM
OVCAR-8 ovarian
  GI50: 2.45 µM
  TGI: 6.5 µM
PC-3 prostate
  GI50: 2.15 µM
  TGI: 4.96 µM
RXF 393 renal
  GI50: 1.75 µM
  TGI: 3.65 µM
SF-295 CNS
  GI50: 1.93 µM
  TGI: 4.7 µM
SF-539 CNS
  GI50: 4.04 µM
  TGI: 14.2 µM
SK-MEL-2 melanoma
  GI50: 3.1 µM
  TGI: 10.4 µM
SK-MEL-28 melanoma
  GI50: 3.4 µM
  TGI: 12.5 µM
SK-MEL-5 melanoma
  GI50: 3.55 µM
  TGI: 12.8 µM
SK-OV-3 ovarian
  GI50: 2.53 µM
  TGI: 6.03 µM
SN12C renal
  GI50: 2.52 µM
  TGI: 7.97 µM
SNB-19 CNS
  GI50: 4.33 µM
  TGI: 19.8 µM
SNB-75 CNS
  GI50: 1.87 µM
  TGI: 4.95 µM
SW-620 colon
  GI50: 3.28 µM
  TGI: 12.1 µM
T-47D breast
  GI50: 3.51 µM
  TGI: 17.2 µM
TK-10 renal
  GI50: 2.8 µM
  TGI: 7.63 µM
U251 CNS
  GI50: 4.38 µM
  TGI: 17.3 µM
UACC-257 melanoma
  GI50: 3.87 µM
  TGI: 17.5 µM
UACC-62 melanoma
  GI50: 1.77 µM
  TGI: 3.74 µM
UO-31 renal
  GI50: 2.29 µM
  TGI: 7.81 µM
